Data set [1] is described as follows: Solubility of the compound. The data set is classed as physicochemical.
Data set [2] is described as follows: AUC (0 to 8 hrs) in Sprague-Dawley rat at 2 mg/kg, iv or 5 mg/kg, po. The data set is classed as ADME, organism-based. The following applies: plasma.
The nature of data set [3]: Volume of distribution at steady state in Sprague-Dawley rat at 2 mg/kg, iv or 5 mg/kg, po. The data set is classed as ADME, organism-based. To be noted: in vivo, read-out: Vdss.
Data set [4] is described as follows: Oral bioavailability in Sprague-Dawley rat at 5 mg/kg. The data set is classed as ADME, organism-based. The following applies: in vivo.

Values after ≈ are worked out from the molar mass of the structure shown.

As a reminder, the solubility is how much of the substance goes into solution per volume. One may read the AUC(0-t) as the area under the concentration-time curve up to a stated or last time point. Read a high AUC(0-t) as more exposure. By bioavailability is commonly meant the share of a dose that reaches the circulation, judged against a reference dose that is usually intravenous.

Regarding `CN1CCN(c2ccc(-c3cc(-c4cccc(C(=O)NCC#N)c4)n[nH]3)cc2)CC1`, in data set [1], the concentration in solution (solubility) came to 50 µM (≈ 20 µg/mL).

On to `C[C@@H](C#N)NC(=O)c1cccc(-c2cc(-c3ccc(N4CCN(C)CC4)cc3)on2)c1`, for which, in data set [1], the solubility was under 10 µM.

As for `C[C@H](C#N)NC(=O)c1cccc(-c2cc(-c3ccc(N4CCN(C)CC4)cc3)on2)c1`, the solubility in data set [1] was under 10 µM.

`N#CCNC(=O)c1cccc(-c2cc(-c3ccc(CNC4CCOCC4)cc3)on2)c1` displayed a solubility in data set [1] of 170 µM (≈ 70.8 µg/mL).

In turn, `CC(C)NCc1ccc(-c2cc(-c3cccc(C(=O)N[C@H](C)C#N)c3)no2)cc1` showed a solubility in data set [1] of over 870 µM.

Molecule `CN1CCN(c2ccc(-c3cc(-c4cccc(C(=O)NCC#N)c4)n[nH]3)cc2Br)CC1` registered a solubility in data set [1] of under 10 µM.

Consider `CC(C)NCc1ccc(-c2cc(-c3cccc(C(=O)N[C@H](C)C#N)c3)[nH]n2)cc1`, for which, in data set [1], the solubility was over 990 µM.

`COCCNCc1ccc(-c2cc(-c3cccc(C(=O)NC(C)C)c3)n[nH]2)cc1` displayed a solubility in data set [1] of 910 µM (≈ 357 µg/mL).

For `CC(C)NC(=O)c1cccc(-c2cc(-c3ccc(CNC4CC4)cc3)[nH]n2)c1`, in data set [1], the solubility worked out at 220 µM (≈ 82.4 µg/mL).

For the molecule `CCCNC(=O)c1cccc(-c2cc(-c3ccc(N4CCN(C)CC4)cc3)[nH]n2)c1`, the solubility in data set [1] is 330 µM (≈ 133 µg/mL).

For `CN1CCN(c2ccc(-c3cc(-c4cccc(C(=O)NCCC#N)c4)n[nH]3)cc2)CC1`, in data set [1], the concentration in solution (solubility) was 650 µM (≈ 269 µg/mL).

Molecule `CN(C)CCNC(=O)c1cccc(-c2cc(-c3ccc(N4CCN(C)CC4)cc3)[nH]n2)c1` yielded a solubility in data set [1] of over 960 µM.

In data set [1], `CC(C)NC(=O)c1cccc(-c2cc(-c3ccc(N4CCN(C)CC4)c(-c4ccncc4)c3)[nH]n2)c1` had a solubility of under 10 µM.

In data set [1], `COCCNC(=O)c1cccc(-c2cc(-c3ccc(N4CCN(C)CC4)cc3)[nH]n2)c1` had a solubility of 760 µM (≈ 319 µg/mL).

For the molecule `CC(C)NC(=O)c1cccc(-c2cc(-c3ccc(N4CCN(C)CC4)cc3)[nH]n2)c1`, the concentration in solution in data set [1] (solubility) was 270 µM (≈ 109 µg/mL).

Take `CC(C)NC(=O)c1cccc(-c2cc(-c3ccc(N4CCN(C)CC4)c(Br)c3)[nH]n2)c1`: in data set [1], the solubility was found to be 40 µM (≈ 19.3 µg/mL).

Consider `CN1CCN(c2ccc(-c3cc(-c4cccc(C(=O)NCCO)c4)n[nH]3)cc2)CC1`, for which, in data set [1], the solubility is 170 µM (≈ 68.9 µg/mL).

The molecule `C[C@@H](C#N)NC(=O)c1cccc(-c2cc(-c3ccc(CNC4CCOCC4)cc3)on2)c1` showed a solubility in data set [1] of 110 µM (≈ 47.4 µg/mL).

For `CN1CCN(c2ccc(-c3cc(-c4cccc(C(=O)NCC#N)c4)no3)cc2)CC1`, in data set [1], the solubility is under 10 µM.

In data set [1], `CC(C)NC(=O)c1cccc(-c2cc(-c3ccc(CNC4CCOCC4)cc3)on2)c1` registered a solubility of 140 µM (≈ 58.7 µg/mL).

For the molecule `C[C@H](C#N)NC(=O)c1cccc(-c2cc(-c3ccc(CNC4CCOCC4)cc3)on2)c1`, the solubility in data set [1] stood at 240 µM (≈ 103 µg/mL). The same molecule returned an AUC(0-t) in data set [2] of 0.84 µM·h. In addition, the Vd in data set [3] was found to be 6 L/kg. Also, the bioavailability in data set [4] is 38%.

The molecule `CN1CCN(c2ccc(-c3cc(-c4cccc(C(=O)NCC(F)(F)F)c4)n[nH]3)cc2)CC1` yielded a solubility in data set [1] of 170 µM (≈ 75.4 µg/mL).

The molecule `CC(C)(C#N)NC(=O)c1cccc(-c2cc(-c3ccc(CNC4CCOCC4)cc3)on2)c1` showed a solubility in data set [1] of 70 µM (≈ 31.1 µg/mL).

In data set [1], `CC(C)NC(=O)c1cccc(-c2cc(-c3ccc(CNCC(F)(F)F)cc3)[nH]n2)c1` registered a solubility of under 10 µM.

In the case of `CC(C)NCc1ccc(-c2cc(-c3cccc(C(=O)NC(C)C)c3)[nH]n2)cc1`, the solubility in data set [1] is over 970 µM.

Regarding `CC(C)NC(=O)c1cccc(-c2cc(-c3ccc(N4CCN(C)CC4)c(-c4ccccc4)c3)[nH]n2)c1`, the solubility in data set [1] is under 10 µM.

Source of the values: ChEMBL document CHEMBL1681675, “3,5-diarylazoles as novel and selective inhibitors of protein kinase D” (Bioorg Med Chem Lett, 2011).
